Where only a bound is given, the exact number is not on record here.

The target of the first test is T1, human p38 kinase alpha (Homo sapiens, UniProt Q16539).
T1 construct: The coding region of the human p38a cDNA was obtained by PCR-amplification from RNA isolated from the human monocyte cell line THP.1; GST (N); made in house; host or cells: E. coli DH10B
T1 sequence (Q16539 whole entry): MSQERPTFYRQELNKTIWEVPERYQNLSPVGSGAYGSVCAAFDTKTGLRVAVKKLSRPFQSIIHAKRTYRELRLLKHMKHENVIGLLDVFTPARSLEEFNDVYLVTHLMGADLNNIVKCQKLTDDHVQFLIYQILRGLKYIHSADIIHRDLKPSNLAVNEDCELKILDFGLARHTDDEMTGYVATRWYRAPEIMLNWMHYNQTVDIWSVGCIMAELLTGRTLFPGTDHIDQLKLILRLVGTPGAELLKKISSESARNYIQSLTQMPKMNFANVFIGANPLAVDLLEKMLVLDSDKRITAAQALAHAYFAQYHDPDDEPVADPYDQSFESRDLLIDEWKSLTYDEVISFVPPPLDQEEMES
Description: p38 kinase in vitro assay, phosphorylation of biotinylated PHAS-I with gamma 32P-ATP. The test is classed as biochemical. The following applies: @ 1.0 uM. As to the method: The ability of compounds to inhibit human p38 kinase alpha was evaluated using two in vitro assay methods. In the first method activated human p38 kinase alpha phosphorylates a biotinylated substrate, PHAS-I (phosphorylated heat and acid stable protein-insulin inducible), in the presence of gamma ^32P-ATP (^32P-ATP). PHAS-I was biotinylated prior to the assay and provides a means of capturing the substrate which is phosphorylated during the assay. p38 Kinase was activated by MKK6. Compounds were tested in 10 fold serial dilutions over the range of 100 μM to 0.001 μM using 1% DMSO. Each concentration of inhibitor was tested in triplicate.
All reactions were carried out in 96 well polypropylene plates. Each reaction well contained 25 mM HEPES pH 7.5, 10 mM magnesium acetate and 50 μM unlabeled ATP. […] The reaction proceeded either for one hour or overnight at 30° C.
Following incubation, 20 μl of reaction mixture was transferred to a high capacity streptavidin coated filter plate (SAM-streptavidin-matrix, Promega) prewetted with phosphate buffered saline. […] Filter plates were air dried and 20 μl of scintillant was added. The plates were sealed and counted.
For `O=C(NCc1[nH]nc(-c2ccc(F)cc2)c1-c1ccncc1)[C@@H]1C[C@@H]1c1ccccc1` [Example B-0002], the “P38 alpha kinase % inhib @ conc.” value stood at 71.1% @ 1.0 uM. The same measure, in the same setting: next, `O=C(NCc1[nH]nc(-c2ccc(F)cc2)c1-c1ccncc1)c1cc(C(F)(F)F)ccc1F` [Example B-0050]: 73% @ 1.0 uM; `O=C(NCc1[nH]nc(-c2ccc(F)cc2)c1-c1ccncc1)c1cccc2ccccc12` [Example B-0037]: 91.0% @ 1.0 uM. On the same count and under the same terms, next, `O=C(NCc1[nH]nc(-c2ccc(F)cc2)c1-c1ccncc1)c1ccc(OC(F)(F)F)cc1` [Example B-0028]: 69.0% @ 1.0 uM.

Still in this test, the particulars now being: @ 1.0 uM; read-out: P38 alpha kinase % inhib @ conc.
Turning to `CCOc1ccc2ccccc2c1C(=O)NCc1[nH]nc(-c2ccc(F)cc2)c1-c1ccncc1` [Example B-0059], the inhibition at 1 µM is 83%. On to `COC(=O)c1ccc(C(=O)NCc2[nH]nc(-c3ccc(F)cc3)c2-c2ccncc2)cc1` [Example B-0082], for which the inhibition at 1 µM was found to be 47%.

For the compound `O=[N+]([O-])c1ccccc1CS(=O)(=O)NCc1[nH]nc(-c2ccc(F)cc2)c1-c1ccncc1` [Example B-0112], the inhibition at 1 µM was determined as 97%. Same read-out and setting: then `COc1cc(C)c(S(=O)(=O)NCc2[nH]nc(-c3ccc(F)cc3)c2-c2ccncc2)c(C)c1C` [Example B-0137], with 41%. The same measure, in the same setting: next, `O=S(=O)(NCc1[nH]nc(-c2ccc(F)cc2)c1-c1ccncc1)c1cccs1` [Example B-0121]: 79%; `O=C(NCc1[nH]nc(-c2ccc(F)cc2)c1-c1ccncc1)c1ccccc1F` [Example B-0074]: 92%; `Cc1cc(C)c(C(=O)NCc2[nH]nc(-c3ccc(F)cc3)c2-c2ccncc2)c(C)c1` [Example B-0049]: 88%. The same measure, in the same setting: then `O=C(NCc1[nH]nc(-c2ccc(F)cc2)c1-c1ccncc1)c1ccno1` [Example B-0054], with 90%; and `Cc1cc(C)c(S(=O)(=O)NCc2[nH]nc(-c3ccc(F)cc3)c2-c2ccncc2)c(C)c1` [Example B-0109], with 45%. Turning to `COc1ccc(S(=O)(=O)NCc2[nH]nc(-c3ccc(F)cc3)c2-c2ccncc2)cc1OC` [Example B-0131], the inhibition at 1 µM was determined as 43%. On the same count and under the same terms, then `COc1ccc(NC(=O)NCc2[nH]nc(-c3ccc(F)cc3)c2-c2ccncc2)c(OC)c1` [Example B-0167], with 40%. `Cc1cccc(C(=O)NCc2[nH]nc(-c3ccc(F)cc3)c2-c2ccncc2)c1` [Example B-0067]: the inhibition at 1 µM turned out to be 91%.

In the case of `O=C(NCc1[nH]nc(-c2ccc(F)cc2)c1-c1ccncc1)c1cccc(F)c1` [Example B-0069], the inhibition at 1 µM stood at 96%. Take `O=[N+]([O-])c1ccccc1S(=O)(=O)NCc1[nH]nc(-c2ccc(F)cc2)c1-c1ccncc1` [Example B-0113]: the inhibition at 1 µM worked out at 75%.

With `O=C(NCc1ccccc1)NCc1[nH]nc(-c2ccc(F)cc2)c1-c1ccncc1` [Example B-0151], the inhibition at 1 µM turned out to be 43%.

The test is the same for the next values; noted with them: @ 10.0 uM; read-out: P38 alpha kinase % inhib @ conc.
As to `O=C(NCc1[nH]nc(-c2ccc(F)cc2)c1-c1ccncc1)Nc1cc(Cl)ccc1Cl` [Example B-0183], the inhibition at 10 µM was 12%. On the same count and under the same terms, then `CC(NC(=O)NCc1[nH]nc(-c2ccc(F)cc2)c1-c1ccncc1)c1cccc2ccccc12` (stereo not drawn) [Example B-0184], with 66%; and `COc1cccc(NC(=O)NCc2[nH]nc(-c3ccc(F)cc3)c2-c2ccncc2)c1` [Example B-0160], with 59%.

The test is the same for the next values; noted with them: p38α in vitro, PHAS-I assay procedure; read-out: p38^1 IC50.
What is called IC50 is the concentration that inhibits the measured activity by half. Take `OCCNc1cc(-c2c[nH]nc2-c2ccc(F)cc2)ccn1` [Example A-280]: the IC50 is 134 nM.

As to `OCCn1cc(-c2ccnc(NCc3ccc(F)cc3)c2)c(-c2ccc(F)cc2)n1` [Example A-283, 3 (or 5)-(4-fluorophenyl)-4-[2-[[(4-fluorophenyl)methyl]amino]-4-pyridinyl]-1H-pyrazole-1-ethanol], the IC50 is < 100 nM.

In the case of `Fc1ccc(CNc2cc(-c3cn(CCN4CCOCC4)nc3-c3ccc(F)cc3)ccn2)cc1` [Example A-276, N-[(4-fluorophenyl)methyl]-4-[3(or 5)-(4-fluorophenyl)-1-[[2-(4-morpholinyl)ethyl]-1H-pyrazol-4-yl]-2-pyridinamine], the concentration for half-maximal inhibition (IC50) is 176 nM. Same read-out and setting: next, `Cn1cc(-c2ccnc(NCCO)c2)c(-c2ccc(F)cc2)n1` [Example A-281, 2-[[4-[3-(4-fluorophenyl)-1-methyl-1H-pyrazol-4-yl]-2-pyridinyl]amino]ethanol]: 53 nM. Same read-out and setting: then `Fc1ccc(-c2n[nH]cc2-c2ccnc(NC3CCNCC3)c2)cc1` [Example A-277, 4-[3-(4-fluorophenyl)-1H-pyrazol-4-yl]-N-4-piperadinyl-2-pyridinamine], with 26 nM.

The same test, now with this note: read-out: P38 alpha kinase IC50.
For the compound `Cc1cccc(C(=O)N[C@H](C)c2[nH]nc(-c3ccc(F)cc3)c2-c2ccncc2)c1` [Example B-0515], the IC50 came to 420 nM. Turning to `O=C(O)CCc1[nH]nc(-c2ccc(F)cc2)c1-c1ccncc1` [Example C-135, 4-(4-(4-PYRIDYL)-3-(4-FLUOROPHENYL)PYRAZOLYL)PROPIONIC ACID], the IC50 was 6000 nM. On the same count and under the same terms, then `C[C@@H](NC(=O)N[C@H](C)c1[nH]nc(-c2ccc(F)cc2)c1-c1ccncc1)c1ccccc1` [Example B-0417], with 910 nM; and `COc1ccc(S(=O)(=O)N[C@H](C)c2[nH]nc(-c3ccc(F)cc3)c2-c2ccncc2)cc1` [Example B-0397], with 170 nM; and `O=C(NCc1[nH]nc(-c2ccc(F)cc2)c1-c1ccncc1)c1cccc(F)c1` [Example B-0292], with 220 nM. The same measure, in the same setting: next, `Cc1noc(C)c1S(=O)(=O)N[C@H](C)c1[nH]nc(-c2ccc(F)cc2)c1-c1ccncc1` [Example B-0476]: 560 nM; `O=C(NCc1[nH]nc(-c2ccc(F)cc2)c1-c1ccncc1)c1cc(F)ccc1F` [Example B-0295]: 820 nM; `CC(NS(=O)(=O)c1ccc(C(F)(F)F)cc1)c1[nH]nc(-c2ccc(F)cc2)c1-c1ccncc1` (stereo not drawn) [Example B-0459]: 99 nM. The same measure, in the same setting: then `CC(NC(=O)c1cc(F)cc(F)c1)c1[nH]nc(-c2ccc(F)cc2)c1-c1ccncc1` (stereo not drawn) [Example B-0679], with 62 nM. In the case of `C[C@@H](NS(=O)(=O)c1ccc(Cl)s1)c1[nH]nc(-c2ccc(F)cc2)c1-c1ccncc1` [Example B-0473], the half-inhibitory concentration (IC50) worked out at 4 nM. On the same count and under the same terms, then `O=S(=O)(NCc1[nH]nc(-c2ccc(F)cc2)c1-c1ccncc1)c1cccc(Cl)c1` [Example B-0239], with 5730 nM.

Consider `CC(=O)OCC(=O)N[C@H](C)c1[nH]nc(-c2ccc(F)cc2)c1-c1ccncc1` [Example B-0353], for which the IC50 came out at 1370 nM.

Regarding `COc1ccc(Cl)cc1S(=O)(=O)NCc1[nH]nc(-c2ccc(F)cc2)c1-c1ccncc1` [Example B-0253], the half-inhibitory concentration (IC50) stood at 61 nM. Still for that read-out and setting: next, `O=C(NCc1[nH]nc(-c2ccc(F)cc2)c1-c1ccncc1)c1ccccc1F` [Example B-0297]: 780 nM; `N#Cc1cccc(C(=O)N2CCC(c3[nH]nc(-c4ccc(F)cc4)c3-c3ccncc3)CC2)c1` [Example B-1396]: 550 nM; `NC(=O)NC(Cc1ccccc1)c1[nH]nc(-c2ccc(F)cc2)c1-c1ccncc1` (stereo not drawn) [Example B-0724]: 60 nM. With `O=C(NCCCc1[nH]nc(-c2ccc(F)cc2)c1-c1ccncc1)c1ccccc1Br` [Example B-1355], the half-maximal inhibitory concentration (IC50) worked out at 700 nM.

As to `Cc1cc(C)c(C(=O)N[C@H](C)c2[nH]nc(-c3ccc(F)cc3)c2-c2ccncc2)c(C)c1` [Example B-0505], the IC50 worked out at 280 nM. Still for that read-out and setting: then `CC(NS(=O)(=O)c1ccc(-c2ccccc2)cc1)c1[nH]nc(-c2ccc(F)cc2)c1-c1ccncc1` (stereo not drawn) [Example B-0658], with 1140 nM; and `N#Cc1ccc(S(=O)(=O)NCc2[nH]nc(-c3ccc(F)cc3)c2-c2ccncc2)cc1` [Example B-0254], with 120 nM; and `CS(=O)(=O)NC(Cc1ccccc1)c1[nH]nc(-c2ccc(F)cc2)c1-c1ccncc1` (stereo not drawn) [Example B-0763], with 15 nM. On the same count and under the same terms, then `C[C@@H](NC(=O)c1cnc2ccccc2n1)c1[nH]nc(-c2ccc(F)cc2)c1-c1ccncc1` [Example B-0384], with 4020 nM; and `COc1ccc(CC(=O)N[C@H](C)c2[nH]nc(-c3ccc(F)cc3)c2-c2ccncc2)cc1OC` [Example B-0371], with 490 nM; and `C[C@@H](NS(=O)(=O)c1cccc2c(N(C)C)cccc12)c1[nH]nc(-c2ccc(F)cc2)c1-c1ccncc1` [Example B-0444], with 1010 nM. `COCC(=O)N[C@H](C)c1[nH]nc(-c2ccc(F)cc2)c1-c1ccncc1` [Example B-0366]: the concentration for half-maximal inhibition (IC50) came out at 700 nM. The same measure, in the same setting: then `CC(NS(=O)(=O)CC12CCC(CC1=O)C2(C)C)c1[nH]nc(-c2ccc(F)cc2)c1-c1ccncc1` (stereo not drawn) [Example B-0435], with 300 nM; and `CC(C)(C)C(=O)NCc1[nH]nc(-c2ccc(F)cc2)c1-c1ccncc1` [Example B-0201], with 290 nM. With `C[C@@H](NC(=O)c1ccc(F)c(F)c1F)c1[nH]nc(-c2ccc(F)cc2)c1-c1ccncc1` [Example B-0369], the concentration for half-maximal inhibition (IC50) was determined as 160 nM. The same measure, in the same setting: next, `COc1cccc(C(=O)NC(C)c2[nH]nc(-c3ccc(F)cc3)c2-c2ccncc2)c1` (stereo not drawn) [Example B-0557]: 1370 nM; `Clc1ccc(-c2n[nH]c(C3CCNCC3)c2-c2ccncn2)cc1` [Example C-136]: 32 nM.

(Values after patent US6525059B1, “Substituted pyrazoles as p38 kinase inhibitors” (G. D. Searle & Company, priority 1998, dated 2003).)
